# Like-named read-outs stand apart in the source and are kept apart here.
# Experiments:
# L. infantum = assay: Intramacrophage L. infantum assay; format: cell-based; settings: Leishmania infantum, geometric mean of at least two independent tests
# Protocol: L. infantum (MHOM/MA/67/ITMAP263) and L. donovani (MHOM/ET/67/L82) were maintained in the golden (Syrian) hamster (Mesocricetus auratus). Ex vivo amastigotes were collected from the spleen of an infected donor hamster using two centrifugation purification steps: 230g for 10 min, keeping the supernatant layer, and 4100g for 30 min, keeping the pellet. The spleen parasite burden was assessed using the Stauber technique.[25] For in vitro assays, the inoculum was prepared in RPMI-1640 medium, supplemented with 200 mM L-glutamine, 16.5 mM NaHCO3, and 5% inactivated fetal calf serum. For the in vivo model, an infection inoculum containing 2 × 10^7 amastigotes/100 μL was prepared in phosphate-buffered saline (PBS).
# The assay was performed in sterile 96-well microtiter plates, each well containing 10 μL of the compound dilution and 190 μL of the PMM/amastigote inoculum (3 × 10^4 cells/4.5 × 10^5 parasites per well). Parasite multiplication was compared to untreated infected controls (100% growth) and uninfected controls (0% growth). After five-day incubation, total parasite burdens were microscopically assessed after staining the cells with a 10% Giemsa solution. The results were expressed as a percentage reduction in parasite burden compared to untreated control wells. EC50 values were determined using an extended dose range (2-fold compound dilutions, 8-point concentration curve). Miltefosine was used as the reference drug.[26] For selected compounds, this assay format was also run using the L. donovani inoculum.
# PMM cytotoxicity assay = format: cell-based; settings: mouse, primary peritoneal mouse macrophages (PMM), geometric mean of at least two independent tests
# Protocol: (§1) Primary peritoneal mouse macrophages (PMM) were collected two days after peritoneal stimulation with a 2% potato starch suspension. MRC5SV2 cells (diploid human embryonic lung fibroblasts) were cultured in minimal essential medium (MEM) containing Earle’s salts, supplemented with L-glutamine, NaHCO3, and 5% inactivated fetal calf serum. All cultures and assays were conducted at 37 °C under an atmosphere of 5% CO2.
# (§2) Assays were performed in sterile 96-well microtiter plates, each well containing 10 μL of the compound dilution and 190 μL of MRC5SV2 or PMM inoculum (3 × 10^4 cells/mL). Cell growth was compared to untreated controls (100% growth) and assay-media controls (0% growth). After three-day incubation, cell viability was assessed fluorometrically by adding resazurin (50 μL/well of a stock solution in phosphate buffer (50 μg/mL)), incubating for 4 h and measuring fluorescence (λex 550 nm, λem 590 nm). The results were expressed as a percentage reduction in cell growth compared to untreated control wells. […] Tamoxifen was included as the reference drug.
# MRC5 cytotoxicity assay = format: cell-based; settings: human, MRC5SV2 cells (human embryonic lung fibroblasts), geometric mean of at least two independent tests
# Protocol: as §1, §2
# [1] = Liver microsome stability, human; format: in vitro ADME; settings: human liver microsomes
# Protocol: (§3) Tests were performed by WuXi AppTec, China. Test compounds (at 1 μM) or positive controls (testosterone, propafenone, and diclofenac) were incubated at 37 °C with liver microsomes from Balb/c mouse, golden (Syrian) hamster, Sprague-Dawley rat, Beagle dog, or human in the presence of a NADPH regenerating system and phosphate buffer (100 mM, pH 7.4) at 0.4 or 0.8 mg/mL microsomal protein. The samples were removed at time intervals from 0 to 60, 90, or 120 min and immediately mixed with cold methanol supplemented or not with acid (3% formic acid) and centrifuged prior to analysis by LC-MS/MS using tolbutamide or propranolol as internal standards.
# [2] = Liver microsome stability, hamster; format: in vitro ADME; settings: golden (Syrian), hamster liver microsomes
# Protocol: as §3
# [3] = Table 4, read-out: intramacrophage L. infantum EC50
# [4] = pH 7.4, Table 4, read-out: HLM Clint
# [5] = pH 7.4, Table 4, read-out: HamLM Clint
# [6] = Table 5, read-out: intramacrophage L. infantum amastigote EC50
# [7] = pH 7.4, Table 5, read-out: HLM Clint
# [8] = pH 7.4, Table 5, read-out: HamLM Clint
SMILES,EC50 (L. infantum; [3]),"microsomal CLint at 1 μM [1, 4]","microsomal CLint at 2 h, 1 µM [2, 5]",CC50 at 3 days (PMM cytotoxicity assay; Table 4),CC50 at 3 days (MRC5 cytotoxicity assay; Table 4),CC50 at 72 h (MRC5 cytotoxicity assay; Table 4),further results
"Cc1nn(CCC(F)(F)F)cc1C(=O)Nc1ccc2c(c1)B(O)OC2 [Compound 7, N-(1-Hydroxy-1,3-dihydrobenzo[c][1,2]oxaborol-6-yl)-3-methyl-1-(3,3,3-trifluoropropyl)-1H-pyrazole-4-carboxamide]",5.7 µM,–,–,> 64 µM,> 64 µM,–,–
"Cc1nn(C2CCC2)cc1C(=O)Nc1ccc2c(c1)B(O)OC2 [Compound 8, Cyclobutyl-N-(1-hydroxy-1,3-dihydrobenzo[c][1,2]oxaborol-6-yl)-3-methyl-1H-pyrazole-4-carboxamide]",16 µM,< 11.9 µL/min/mg,57 µL/min/mg,> 64 µM,> 64 µM,–,–
"O=C(Nc1ccc2c(c1)B(O)OC2)c1cn(C2CCOCC2)nc1C(F)(F)F [Compound 10, N-(1-Hydroxy-1,3-dihydrobenzo[c][1,2]oxaborol-6-yl)-1-(tetrahydro-2H-pyran-4-yl)-3-(trifluoromethyl)-1H-pyrazole-4-carboxamide]",3 µM,< 11.9 µL/min/mg,109 µL/min/mg,> 64 µM,> 64 µM,–,–
"Cc1nn(-c2ccccn2)cc1C(=O)Nc1ccc2c(c1)B(O)OC2 [Compound 11, N-(1-Hydroxy-1,3-dihydro-2,1-benzoxaborol-6-yl)-3-methyl-1-(pyridine-2-yl)-1H-pyrazole-4-carboxamide]",5.7 µM,< 11.9 µL/min/mg,–,> 64 µM,> 64 µM,–,–
"Cc1c(C(=O)Nc2ccc3c(c2)B(O)OC3)cnn1CCC(F)(F)F [Compound 15, N-(1-Hydroxy-1,3-dihydrobenzo[c][1,2]oxaborol-6-yl)-5-methyl-1-(3,3,3-trifluoropropyl)-1H-pyrazole-4-carboxamide]",14 µM,< 11.9 µL/min/mg,48 µL/min/mg,> 64 µM,> 64 µM,–,–
"Cn1nc(-c2ccccn2)cc1C(=O)Nc1ccc2c(c1)B(O)OC2 [Compound 20, N-(1-Hydroxy-1,3-dihydrobenzo[c][1,2]oxaborol-6-yl)-1-methyl-3-(pyridin-2-yl)-1H-pyrazole-5-carboxamide]",34 µM,–,121 µL/min/mg,> 64 µM,> 64 µM,–,"microsomal CLint at 2 h, 1 µM [1, 4]: 18 µL/min/mg"
"O=C(Nc1ccc2c(c1)B(O)OC2)c1cn(-c2ccccn2)nn1 [Compound 22, N-(1-Hydroxy-1,3-dihydrobenzo[c][1,2]oxaborol-6-yl)-1-(pyridin-2-yl)-1H-1,2,3-triazole-4-carboxamide]",–,–,–,–,–,–,"EC50 (L. infantum; [6]): 1.7 µM; CC50 at 3 days (PMM cytotoxicity assay; Table 5): > 64 µM; CC50 at 72 h (MRC5 cytotoxicity assay; Table 5): 44.8 µM; microsomal CLint at 1 μM [1, 7]: < 11.9 µL/min/mg; microsomal CLint at 2 h, 1 µM [2, 8]: 18 µL/min/mg"
"Cc1c(C(=O)Nc2ccc3c(c2)B(O)OC3)nnn1-c1ccccc1 [Compound 24, N-(1-Hydroxy-1,3-dihydrobenzo[c][1,2]oxaborol-6-yl)-5-methyl-1-phenyl-1H-1,2,3-triazole-4-carboxamide]",–,–,–,–,–,–,"EC50 (L. infantum; [6]): 37 µM; CC50 at 3 days (PMM cytotoxicity assay; Table 5): > 64 µM; CC50 at 3 days (MRC5 cytotoxicity assay; Table 5): > 64 µM; microsomal CLint at 1 μM [1, 7]: < 11.9 µL/min/mg"
"COc1cccc(-n2nnc(C(=O)Nc3ccc4c(c3)B(O)OC4)c2C)n1 [Compound 25, N-(1-Hydroxy-1,3-dihydrobenzo[c][1,2]oxaborol-6-yl)-1-(6-methoxypyridin-2-yl)-5-methyl-1H-1,2,3-triazole-4-carboxamide]",–,–,–,–,–,–,"EC50 (L. infantum; [6]): 0.8 µM; CC50 at 72 h (PMM cytotoxicity assay; Table 5): 32 µM; CC50 at 3 days (MRC5 cytotoxicity assay; Table 5): > 64 µM; microsomal CLint at 2 h, 1 µM [1, 7]: 23 µL/min/mg; microsomal CLint at 2 h, 1 µM [2, 8]: 40 µL/min/mg"
"Cc1cccc(-n2nnc(C(=O)Nc3ccc4c(c3)B(O)OC4)c2C)n1 [Compound 26, N-(1-Hydroxy-1,3-dihydrobenzo[c][1,2]oxaborol-6-yl)-5-methyl-1-(6-methylpyridin-2-yl)-1H-1,2,3-triazole-4-carboxamide]",–,–,–,–,–,–,EC50 (L. infantum; [6]): 6.4 µM; CC50 at 3 days (PMM cytotoxicity assay; Table 5): > 64 µM; CC50 at 3 days (MRC5 cytotoxicity assay; Table 5): > 64 µM
"Cc1c(C(=O)Nc2ccc3c(c2)B(O)OC3)nnn1-c1cccnc1 [Compound 27, N-(1-Hydroxy-1,3-dihydrobenzo[c][1,2]oxaborol-6-yl)-5-methyl-1-(pyridin-3-yl)-1H-1,2,3-triazole-4-carboxamide]",–,–,–,–,–,–,EC50 (L. infantum; [6]): 38 µM; CC50 at 3 days (PMM cytotoxicity assay; Table 5): > 64 µM; CC50 at 3 days (MRC5 cytotoxicity assay; Table 5): > 64 µM

# Now from value to compound, other results behind:
EC50 (L. infantum; [3]),"microsomal CLint at 1 μM [1, 4]","microsomal CLint at 2 h, 1 µM [2, 5]",SMILES,CC50 at 3 days (PMM cytotoxicity assay; Table 4),CC50 at 3 days (MRC5 cytotoxicity assay; Table 4),CC50 at 72 h (MRC5 cytotoxicity assay; Table 4),further results
2.1 µM,< 11.9 µL/min/mg,1040 µL/min/mg,"O=C(Nc1ccc2c(c1)B(O)OC2)c1cn(C(F)(F)F)nc1C(F)(F)F [Compound 4, N-(1-Hydroxy-1,3-dihydrobenzo[c][1,2]oxaborol-6-yl)-1,3-bis(trifluoromethyl)-1H-pyrazole-4-carboxamide]",> 64 µM,> 64 µM,–,–
1.3 µM,< 11.9 µL/min/mg,114 µL/min/mg,"O=C(Nc1ccc2c(c1)B(O)OC2)c1cn(CCC(F)(F)F)nc1C(F)(F)F [Compound 6, N-(1-Hydroxy-1,3-dihydrobenzo[c][1,2]oxaborol-6-yl)-3-(trifluoromethyl)-1-(3,3,3-trifluoropropyl)-1H-pyrazole-4-carboxamide]",–,–,49 µM,CC50 at 72 h (PMM cytotoxicity assay; Table 4): 38 µM
0.59 µM,< 11.9 µL/min/mg,337 µL/min/mg,"O=C(Nc1ccc2c(c1)B(O)OC2)c1cn(C2CCC2)nc1C(F)(F)F [Compound 9, 1-Cyclobutyl-N-(1-hydroxy-1,3-dihydrobenzo[c][1,2]oxaborol-6-yl)-3-(trifluoromethyl)-1H-pyrazole-4-carboxamide]",–,–,26 µM,CC50 at 72 h (PMM cytotoxicity assay; Table 4): 32 µM
2.2 µM,–,–,"COc1ccccc1-n1cc(C(=O)Nc2ccc3c(c2)B(O)OC3)c(C)n1 [Compound 14, N-(1-Hydroxy-1,3-dihydro-2,1-benzoxaborol-6-yl)-1-(2-methoxyphenyl)-3-methyl-1H-pyrazole-4-carboxamide]",> 64 µM,–,15.7 µM,–
1.4 µM,< 11.9 µL/min/mg,40 µL/min/mg,"COc1cccc(-n2ncc(C(=O)Nc3ccc4c(c3)B(O)OC4)c2C)n1 [Compound 17, N-(1-Hydroxy-1,3-dihydrobenzo[c][1,2]oxaborol-6-yl)-1-(6-methoxypyridin-2-yl)-5-methyl-1H-pyrazole-4-carboxamide]",> 64 µM,–,40 µM,–
1.6 µM,< 11.9 µL/min/mg,44 µL/min/mg,"Cc1cccc(-n2ncc(C(=O)Nc3ccc4c(c3)B(O)OC4)c2C)n1 [Compound 18, N-(1-Hydroxy-1,3-dihydrobenzo[c][1,2]oxaborol-6-yl)-5-methyl-1-(6-methylpyridin-2-yl)-1H-pyrazole-4-carboxamide]",> 64 µM,–,41 µM,–
0.5 µM,< 11.9 µL/min/mg,253 µL/min/mg,"O=C(Nc1ccc2c(c1)B(O)OC2)c1cc(-c2ccccn2)n[nH]1 [Compound 19, N-(1-Hydroxy-1,3-dihydrobenzo[c][1,2]oxaborol-6-yl)-3-(pyridin-2-yl)-1H-pyrazole-5-carboxamide]",–,–,4 µM,CC50 at 72 h (PMM cytotoxicity assay; Table 4): 32 µM
1.8 µM,–,106 µL/min/mg,"Cn1nc(C(=O)Nc2ccc3c(c2)B(O)OC3)cc1-c1ccccn1 [Compound 21, N-(1-Hydroxy-1,3-dihydrobenzo[c][1,2]oxaborol-6-yl)-1-methyl-5-(pyridin-2-yl)-1H-pyrazole-3-carboxamide]",> 64 µM,–,54 µM,"microsomal CLint at 2 h, 1 µM [1, 4]: 14 µL/min/mg"

# From PMC8591608, “DNDI-6148: A Novel Benzoxaborole Preclinical Candidate for the Treatment of Visceral Leishmaniasis” (Journal of Medicinal Chemistry, 2021)
